From ChEMBL document CHEMBL1201862, “PubChem BioAssay data set” (2004)
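Growth conditions: 96-well plates. Treatment: test compound, 48 hours, 5 concentrations. Analysis: linear interpolation between bracketing concentrations; unreached endpoints set to highest concentration. The concentration for 50% growth inhibition is given as GI50.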 Activity calls are given as the source filed them. Cut-off read from the data, not from the text of the source: active = GI50 up to about 1.1 µM and inactive = higher.

What was measured:
Assay in all cases: DTP human tumour cell line panel, 48 h
[1] = test system: MOLT-4
[2] = test system: MCF7
[3] = test system: OVCAR-5
[4] = test system: OVCAR-3
[5] = test system: NCI-H23
[6] = test system: UO-31
[7] = test system: HOP-92
[8] = test system: NCI-H522
[9] = test system: Malme-3M
[10] = test system: T47D
[11] = test system: LOX IMVI
[12] = test system: DU-145
[13] = test system: U-251
[14] = test system: EKVX
[15] = test system: CAKI-1
[16] = test system: PC-3
[17] = test system: SK-MEL-28
[18] = test system: HOP-62
[19] = test system: 786-0
[20] = test system: SNB-19

Measured: GI50

Cc1ccc(Nc2ncnc3sc(SCc4ccccc4)nc23)cc1
inactive: [1] > 100 µM | [2] > 100 µM | [3] 43.7 µM | [4] > 100 µM | [5] > 100 µM | [6] 56 µM | [7] 31.3 µM | [8] > 100 µM | [9] > 100 µM | [10] 84.7 µM | [11] > 100 µM | [12] 27.3 µM | [13] > 100 µM | [14] > 100 µM | [15] 26 µM | [16] 90.6 µM | [17] > 100 µM | [18] > 100 µM | [19] > 100 µM | [20] > 100 µM

Nc1n[n+]2cc(-c3ccccc3)n(CC(=O)c3ccccc3)c2s1
inactive: [1] 20.9 µM | [2] 10.8 µM | [3] 18.8 µM | [4] 23.8 µM | [5] 20.6 µM | [6] 76.2 µM | [7] 14.1 µM | [8] 13.3 µM | [9] 12.2 µM | [10] 22.6 µM | [11] 17.9 µM | [12] 50.9 µM | [13] 16.1 µM | [14] 39.6 µM | [15] > 100 µM | [16] 39 µM | [18] 24.8 µM | [19] 20.5 µM | [20] 21.7 µM

CC1=C(C)CC2(C=C(C(C)(C)C)C(=O)C(C(C)(C)C)=C2)SC1
inactive: [1] 27.4 µM | [2] 15.6 µM | [3] 20.1 µM | [4] 17.9 µM | [5] 18.5 µM | [6] 15.7 µM | [7] 19.2 µM | [8] 1.91 µM | [9] 14.2 µM | [10] 27.9 µM | [11] 17.4 µM | [12] 39.3 µM | [13] 15.6 µM | [14] 18.6 µM | [15] 21.5 µM | [16] 26.7 µM | [18] 19.3 µM | [19] 17.9 µM | [20] 17.3 µM

COc1cc(/C=C2\C(=O)N(c3cccc([N+](=O)[O-])c3)C(c3ccccc3)S2(=O)=O)cc(OC)c1OC (stereo not drawn)
inactive: [1] 74 µM | [2] 39.7 µM | [3] > 100 µM | [4] > 100 µM | [5] > 100 µM | [6] > 100 µM | [7] > 100 µM | [8] > 100 µM | [9] > 100 µM | [10] 63.7 µM | [11] > 100 µM | [12] > 100 µM | [13] > 100 µM | [14] > 100 µM | [15] > 100 µM | [16] > 100 µM | [17] > 100 µM | [18] > 100 µM | [19] > 100 µM | [20] > 100 µM

CC1=NN2C(=N)/C(=C/c3ccco3)C(=O)N=C2S1
inactive: [1] > 100 µM | [2] > 100 µM | [3] > 100 µM | [4] > 100 µM | [5] > 100 µM | [6] > 100 µM | [7] 65.5 µM | [8] 1.15 µM | [9] > 100 µM | [10] > 100 µM | [11] > 100 µM | [12] > 100 µM | [13] > 100 µM | [14] > 100 µM | [15] > 100 µM | [16] > 100 µM | [17] > 100 µM | [18] > 100 µM | [19] > 100 µM | [20] > 100 µM

CC1SC2(CCCCC2)N(NC(=O)CSc2nc3ccc(Cl)cc3c(=O)n2-c2ccccc2)C1=O (stereo not drawn)
inactive: [1] 7.53 µM | [2] 15.3 µM | [3] 25.7 µM | [4] 15.6 µM | [5] 23.2 µM | [6] 21.1 µM | [7] 22.3 µM | [8] 18.8 µM | [9] 30.8 µM | [10] 27.3 µM | [11] 19.5 µM | [12] 27 µM | [13] 17.5 µM | [14] 42.5 µM | [15] 37.1 µM | [16] 23.2 µM | [17] 32.6 µM | [18] 18 µM | [19] 18.2 µM | [20] 24.1 µM

CC(C)/C(Cl)=N/OC(=O)Nc1ccc(OC(F)(F)F)cc1
inactive: [1] 2.86 µM | [2] 13.5 µM | [3] 15.6 µM | [4] 17.9 µM | [5] 15.7 µM | [6] 10.8 µM | [7] 1.68 µM | [8] 1.47 µM | [9] 2.48 µM | [10] 8.55 µM | [11] 2.1 µM | [12] 17.2 µM | [13] 17.3 µM | [14] 8.17 µM | [15] 5.2 µM | [16] 16.1 µM | [17] 13.3 µM | [18] 17.7 µM | [19] 6.81 µM | [20] 17.7 µM
